Structures can show the parent of a compound that is named as a salt. Where two headings read alike, the source gives them in different places.

In this experiment the target is T1, recombinant IRAK-4 kinase (Homo sapiens, UniProt Q9NWZ3).
T1 construct: purchased Millipore, USA
T1 sequence (Q9NWZ3 1-460): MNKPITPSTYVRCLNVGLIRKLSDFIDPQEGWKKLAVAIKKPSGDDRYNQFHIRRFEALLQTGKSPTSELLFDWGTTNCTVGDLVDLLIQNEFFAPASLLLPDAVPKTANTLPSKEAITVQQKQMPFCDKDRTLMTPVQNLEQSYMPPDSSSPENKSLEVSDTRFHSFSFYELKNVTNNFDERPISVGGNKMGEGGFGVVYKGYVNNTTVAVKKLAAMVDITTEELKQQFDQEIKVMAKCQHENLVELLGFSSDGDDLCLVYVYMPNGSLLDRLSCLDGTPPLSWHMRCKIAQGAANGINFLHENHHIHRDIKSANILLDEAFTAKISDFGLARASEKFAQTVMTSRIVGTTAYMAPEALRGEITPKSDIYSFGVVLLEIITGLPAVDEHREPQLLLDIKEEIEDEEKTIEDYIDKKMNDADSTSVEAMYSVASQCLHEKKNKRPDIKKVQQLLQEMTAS
Nature of the experiment: IRAK-4 Biochemical Assay (TR-FRET, percent inhibition). Summed up:
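IRAK-4 pre-incubated with compound 30 min at room temperature in Tris-HCl pH 7.5 buffer with MgCl2, MnCl2 and DTT, then reacted 30 min with 100 nM biotin-histone H3 and 20 μM ATP. EDTA stop with Eu-anti-phospho-H3 (Ser10) and APC-streptavidin. Percent inhibition derived from the 665/615 nm emission ratio at 340 nm excitation.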

The mark [1] stands for this setting: read-out: % inhibition of IRAK-4 @0.1 μM, compound at 0.1 μM, TR-FRET, 20 μM ATP, 100 nM Biotin Histone H3.
Setting [2] is: read-out: % inhibition of IRAK-4 @ 1 μM, compound at 1 μM, TR-FRET, 20 μM ATP, 100 nM Biotin Histone H3.

For the compound `O=C(Nc1cc2sc(N3CCOCC3)nc2nc1N1CCCCC1)c1cccc(N2CCC(C(=O)O)CC2)n1` [Example 71, sodium 1-(6-((2-morpholino-5-(piperidin-1-yl)thiazolo[4,5-b]pyridin-6-yl)carbamoyl)pyridin-2-yl)piperidine-4-carboxylate], the inhibition at 0.1 µM under setting [1] came to 94%. Also, the inhibition at 1 µM under setting [2] was found to be 96%.

On to `NC1CCN(c2ccn3ncc(C(=O)Nc4cc5sc(N6CCOCC6)nc5nc4C4CC4)c3n2)CC1` [Example 99, 5-(4-aminopiperidin-1-yl)-N-(5-cyclopropyl-2-morpholinothiazolo[4,5-b]pyridin-6-yl)pyrazolo[1,5-a]pyrimidine-3-carboxamide 2,2,2-trifluoroacetate], for which the inhibition at 0.1 µM under setting [1] came out at 89%. Further, the inhibition at 1 µM under setting [2] worked out at 96%.

As to `O=C(Nc1cc2sc(N3CCOCC3)nc2nc1N1CCCCC1)c1cccc(-n2cc(CO)cn2)n1` [Example 69, 6-(4-(hydroxymethyl)-1H-pyrazol-1-yl)-N-(2-morpholino-5-(piperidin-1-yl)thiazolo[4,5-b]pyridin-6-yl)picolinamide], under setting [1], the inhibition at 0.1 µM was 98%. Further, under setting [2], the inhibition at 1 µM was 99%.

As to `CCOP(=O)(OCC)O[C@H]1CCN(c2cccc(C(=O)Nc3cc4sc(N5CCOCC5)nc4nc3N3CCCCC3)n2)C1` [Example 47, (S)-diethyl (1-(6-((2-morpholino-5-(piperidin-1-yl)thiazolo[4,5-b]pyridin-6-yl)carbamoyl)pyridin-2-yl)pyrrolidin-3-yl)phosphate], under “read-out: % inhibition of IRAK-4 @0.1 μM”, the inhibition at 0.1 µM is 18%. Further, for the setting “read-out: % inhibition of IRAK-4 @ 1 μM”, the inhibition at 1 µM was found to be 58%.

For `O=C(Nc1cc2sc(N3CCOCC3)nc2nc1N1CCCCC1)c1cccc(N2CC[C@H](O)C2)n1` [Example 42, (S)-6-(3-hydroxypyrrolidin-1-yl)-N-(2-morpholino-5-(piperidin-1-yl)thiazolo[4,5-b]pyridin-6-yl)picolinamide hydrochloride], the inhibition at 0.1 µM under setting [1] amounted to 94%. For the same compound, the inhibition at 1 µM under setting [2] was 98%.

Consider `O=C(Nc1cc2sc(N3CCOCC3)nc2nc1N1CCCCC1)c1cccc(N2CC3CC2CO3)n1` (stereo not shown) [Example 45, 6-(2-oxa-5-azabicyclo[2.2.1]heptan-5-yl)-N-(2-morpholino-5-(piperidin-1-yl)thiazolo[4,5-b]pyridin-6-yl)picolinamide], for which the inhibition at 0.1 µM under setting [1] is 95%. Besides, the inhibition at 1 µM under setting [2] was 97%.

For the compound `O=C(Nc1cc2sc(N3CCOCC3)nc2nc1N1CCC[C@@H](O)C1)c1cccc(N2CCC(O)CC2)n1` [Example 38, (R)-6-(4-hydroxypiperidin-1-yl)-N-(5-(3-hydroxypiperidin-1-yl)-2-morpholinothiazolo[4,5-b]pyridin-6-yl)picolinamide], the inhibition at 0.1 µM under setting [1] was 98%. The inhibition at 1 µM under setting [2] came out at 99%.

Consider `O=C(Nc1cc2sc(N3CCOCC3)nc2nc1N1CCC(O)(CO)CC1)c1cccc(N2CC[C@H](O)C2)n1` [Example 8, (S)-N-(5-(4-hydroxy-4-(hydroxymethyl)piperidin-1-yl)-2-morpholinothiazolo[4,5-b]pyridin-6-yl)-6-(3-hydroxypyrrolidin-1-yl)picolinamide hydrochloride], for which, under setting [1], the inhibition at 0.1 µM is 97%. Besides, the inhibition at 1 µM under setting [2] was 98%.

As for `O=C(Nc1cc2oc(N3CCOCC3)nc2nc1N1CCCCC1)c1cnn2cccnc12` [Example 24, N-(2-morpholino-5-(piperidin-1-yl)oxazolo[4,5-b]pyridin-6-yl)pyrazolo[1,5-a]pyrimidine-3-carboxamide], the inhibition at 0.1 µM under setting [1] came to 97%. Moreover, under setting [2], the inhibition at 1 µM was 97%.

On to `O=C1CN(c2cccc(C(=O)Nc3cc4sc(N5CCOCC5)nc4nc3N3CCCCC3)n2)CCN1` [Example 61, N-(2-morpholino-5-(piperidin-1-yl)thiazolo[4,5-b]pyridin-6-yl)-6-(3-oxopiperazin-1-yl)picolinamide], for which the inhibition at 0.1 µM under setting [1] was found to be 84%. Besides, under setting [2], the inhibition at 1 µM was found to be 91%.

`Cc1ccc(C(=O)Nc2cc3sc(N4CCOCC4)nc3nc2N2CCCCC2)nc1N1CC[C@H](O)C1` [Example 84, (S)-6-(3-hydroxypyrrolidin-1-yl)-5-methyl-N-(2-morpholino-5-(piperidin-1-yl)thiazolo[4,5-b]pyridin-6-yl)picolinamide]: the inhibition at 0.1 µM under setting [1] came out at 94%. The inhibition at 1 µM under setting [2] was 98%.

Regarding `Nc1cccc(-c2nc(C(=O)Nc3cc4oc(N5CCOCC5)nc4nc3N3CCCCC3)co2)n1` [Example 93, 2-(6-aminopyridin-2-yl)-N-(2-morpholino-5-(piperidin-1-yl)oxazolo[4,5-b]pyridin-6-yl)oxazole-4-carboxamide], the inhibition at 0.1 µM under setting [1] amounted to 87%. Also, under setting [2], the inhibition at 1 µM was 93%.

`Cn1cc(-c2nc(C(=O)Nc3cc4sc(N5CCOCC5)nc4nc3N3CCCCC3)co2)cc(F)c1=O` [Example 13, 2-(5-fluoro-1-methyl-6-oxo-1,6-dihydropyridin-3-yl)-N-(2-morpholino-5-(piperidin-1-yl)thiazolo[4,5-b]pyridin-6-yl)oxazole-4-carboxamide]: the inhibition at 0.1 µM under setting [1] amounted to 98%. Further, the inhibition at 1 µM under setting [2] was determined as 98%.

Take `Nc1cc(-c2nc(C(=O)Nc3cc4sc(N5CCOCC5)nc4nc3N3CCCCC3)co2)c(Cl)cn1` [Example 12, 2-(2-amino-5-chloropyridin-4-yl)-N-(2-morpholino-5-(piperidin-1-yl)thiazolo[4,5-b]pyridin-6-yl)oxazole-4-carboxamide]: the inhibition at 0.1 µM under setting [1] came out at 98%. Besides, the inhibition at 1 µM under setting [2] is 98%.

Regarding `Cc1cc(-c2nc(C(=O)Nc3cc4oc(N5CCOCC5)nc4nc3N3CC[C@@H](OCC4CC4)C3)co2)ccn1` [Example 95, (R)-N-(5-(3-(cyclopropylmethoxy)pyrrolidin-1-yl)-2-morpholinooxazolo[4,5-b]pyridin-6-yl)-2-(2-methylpyridin-4-yl)oxazole-4-carboxamide], under setting [1], the inhibition at 0.1 µM was 80%. The inhibition at 1 µM under setting [2] amounted to 97%.

As to `O=C(Nc1cc2sc(N3CCOCC3)nc2nc1N1CCCCC1)c1cccc(N2CCC(C(=O)O)CC2)n1` [Example 80, 1-(6-((2-morpholino-5-(piperidin-1-yl)thiazolo[4,5-b]pyridin-6-yl)carbamoyl)pyridin-2-yl)piperidine-4-carboxylic acid], the “% inhibition of IRAK-4 @0.1 μM” value (compound at 0.1 μM, TR-FRET, 20 μM ATP, 100 nM Biotin Histone H3) is 96%. For the same compound, the “% inhibition of IRAK-4 @ 1 μM” value (compound at 1 μM, TR-FRET, 20 μM ATP, 100 nM Biotin Histone H3) was determined as 99%.

Regarding `COC1CCN(c2cccc(C(=O)Nc3cc4sc(N5CCOCC5)nc4nc3N3CCCCC3)n2)CC1` [Example 31, 6-(4-methoxypiperidin-1-yl)-N-(2-morpholino-5-(piperidin-1-yl)thiazolo[4,5-b]pyridin-6-yl)picolinamide], under setting [1], the inhibition at 0.1 µM was 90%. The inhibition at 1 µM under setting [2] worked out at 98%.

Turning to `NCC(=O)O[C@H]1CCN(c2nccc(C(=O)Nc3cc4sc(N5CCOCC5)nc4nc3N3CCCCC3)n2)C1` [Example 64, (S)-1-(4-((2-morpholino-5-(piperidin-1-yl)thiazolo[4,5-b]pyridin-6-yl)carbamoyl)pyrimidin-2-yl)pyrrolidin-3-yl glycinate], the inhibition at 0.1 µM under setting [1] is 74%. Further, under setting [2], the inhibition at 1 µM is 92%.

With `NCC(=O)OC1CCN(c2cccc(C(=O)Nc3cc4sc(N5CCOCC5)nc4nc3N3CCCCC3)n2)CC1` [Example 66, 1-(6-((2-morpholino-5-(piperidin-1-yl)thiazolo[4,5-b]pyridin-6-yl)carbamoyl)pyridin-2-yl)piperidin-4-yl glycinate], the inhibition at 0.1 µM under setting [1] was determined as 90%. Also, the inhibition at 1 µM under setting [2] was determined as 95%.

Turning to `O=C(Nc1cc2sc(N3CCOCC3)nc2nc1N1CCCCC1)c1cccc(-n2cnc(CO)c2)n1` [Example 67, 6-(4-(hydroxymethyl)-1H-imidazol-1-yl)-N-(2-morpholino-5-(piperidin-1-yl)thiazolo[4,5-b]pyridin-6-yl)picolinamide], the inhibition at 0.1 µM under setting [1] came to 100%. In addition, the inhibition at 1 µM under setting [2] was found to be 101%.

Take `O=C(Nc1cc2sc(N3CCOCC3)nc2nc1N1CCCCC1)c1cncc(N2CC[C@@H](O)C2)n1` [Example 62, (R)-6-(3-hydroxypyrrolidin-1-yl)-N-(2-morpholino-5-(piperidin-1-yl)thiazolo[4,5-b]pyridin-6-yl)pyrazine-2-carboxamide]: the inhibition at 0.1 µM under setting [1] was found to be 93%. Moreover, the inhibition at 1 µM under setting [2] worked out at 95%.

As for `Cc1cc(-c2nc(C(=O)Nc3cc4sc(N5CCNCC5)nc4nc3N3CCCCC3)co2)ccn1` [Example 7, 2-(2-methylpyridin-4-yl)-N-(2-(piperazin-1-yl)-5-(piperidin-1-yl)thiazolo[4,5-b]pyridin-6-yl)oxazole-4-carboxamide hydrochloride], the inhibition at 0.1 µM under setting [1] stood at 99%. Further, the inhibition at 1 µM under setting [2] was determined as 99%.

`O=C(Nc1cc2sc(N3CCOCC3)nc2nc1N1CCCCC1)c1cccc(N2CC[C@@H](O)C2)n1` [Example 34, (R)-6-(3-hydroxypyrrolidin-1-yl)-N-(2-morpholino-5-(piperidin-1-yl)thiazolo[4,5-b]pyridin-6-yl)picolinamide]: under setting [1], the inhibition at 0.1 µM worked out at 97%. Under setting [2], the inhibition at 1 µM was 99%.

For orientation: inhibition means the drop in the measured response relative to a control, in per cent.

The values above are taken from US20180208605A1, “Substituted Aza Compounds as IRAK-4 Inhibitors” (AURIGENE DISCOVERY TECHNOLOGIES LIMITED, priority 2015, published 2018).
